pKi: −log10 of the molar value.
Key:
Carbonic anhydrase 3 = Carbonic anhydrase 3 (Homo sapiens, UniProt P07451); assay: Inhibition of human carbonic anhydrase-3 cytosolic isoform after 15 mins by Stopped-flow CO2 hydrase assay
Carbonic anhydrase 1 = Carbonic anhydrase 1 (Homo sapiens, UniProt P00915); assay: Inhibition of human carbonic anhydrase-1 cytosolic isoform after 15 mins by Stopped-flow CO2 hydrase assay
Carbonic anhydrase 9 = Carbonic anhydrase 9 (Homo sapiens, UniProt Q16790); assay: Inhibition of tumor-associated transmembrane human carbonic anhydrase-9 after 15 mins by Stopped-flow CO2 hydrase assay
Carbonic anhydrase 12 = Carbonic anhydrase 12 (Homo sapiens, UniProt O43570); assay: Inhibition of tumor-associated transmembrane human carbonic anhydrase-12 after 15 mins by Stopped-flow CO2 hydrase assay
Sequence of Carbonic anhydrase 12 (O43570 whole entry): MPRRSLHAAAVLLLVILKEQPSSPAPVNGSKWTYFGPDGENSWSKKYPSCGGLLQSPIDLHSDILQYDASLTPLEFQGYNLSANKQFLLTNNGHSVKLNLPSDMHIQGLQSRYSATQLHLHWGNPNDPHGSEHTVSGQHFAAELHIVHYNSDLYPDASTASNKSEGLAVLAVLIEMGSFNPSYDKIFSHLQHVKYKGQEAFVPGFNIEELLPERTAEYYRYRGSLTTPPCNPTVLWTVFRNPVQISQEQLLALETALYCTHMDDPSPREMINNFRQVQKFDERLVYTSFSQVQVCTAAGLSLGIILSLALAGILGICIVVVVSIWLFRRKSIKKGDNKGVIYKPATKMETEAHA

Sequence of Carbonic anhydrase 3 (P07451 whole entry, canonical isoform): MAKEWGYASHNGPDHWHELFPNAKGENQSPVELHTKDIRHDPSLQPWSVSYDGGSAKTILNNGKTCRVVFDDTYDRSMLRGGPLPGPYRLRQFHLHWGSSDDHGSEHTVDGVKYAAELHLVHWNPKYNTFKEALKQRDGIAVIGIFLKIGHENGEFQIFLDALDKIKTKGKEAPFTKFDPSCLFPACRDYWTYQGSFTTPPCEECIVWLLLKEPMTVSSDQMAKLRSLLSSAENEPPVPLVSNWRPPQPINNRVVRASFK
Sequence of Carbonic anhydrase 1 (P00915 whole entry, canonical isoform): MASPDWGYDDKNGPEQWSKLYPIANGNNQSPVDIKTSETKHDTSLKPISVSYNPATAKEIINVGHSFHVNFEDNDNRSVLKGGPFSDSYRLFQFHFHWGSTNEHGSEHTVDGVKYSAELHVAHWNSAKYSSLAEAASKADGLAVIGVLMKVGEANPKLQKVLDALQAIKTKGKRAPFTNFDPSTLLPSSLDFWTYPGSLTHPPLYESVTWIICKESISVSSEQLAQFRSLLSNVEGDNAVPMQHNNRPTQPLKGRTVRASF

| pKi (Carbonic anhydrase 3) | pKi (Carbonic anhydrase 1) | pKi (Carbonic anhydrase 9) | pKi (Carbonic anhydrase 12) | Compound |
| --- | --- | --- | --- | --- |
| 2.92 | 6.07 | – | – | NS(=O)(=O)c1nnc(NC(=O)C23CC4CC(CC(C4)C2)C3)s1 |
| 2.85 | 6.47 | – | – | NS(=O)(=O)c1nnc(NC(=O)CC23CC4CC(CC(C4)C2)C3)s1 |
| < 2.00 | – | 7.25 | 8.03 | NS(=O)(=O)c1ccc(NC(=O)CC23CC4CC(CC(C4)C2)C3)cc1 |
| < 2.00 | – | 7.29 | 8.15 | NS(=O)(=O)c1ccc(NC(=O)C23CC4CC(CC(C4)C2)C3)cc1 |

Source: ChEMBL document CHEMBL2346533, “Structural effect of phenyl ring compared to thiadiazole based adamantyl-sulfonamides on carbonic anhydrase inhibition” (Bioorg Med Chem, 2013)
